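Following 48 hours of exposure in 96-well plates, responses at five concentrations were used to interpolate endpoints linearly. Here, GI50 denotes the concentration required for 50% inhibition of growth. TGI denotes the concentration required for complete inhibition of growth.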
Columns and labels:
Assay in all cases: growth of human tumour cells (NCI), 48 h
EKVX NSCLC = test system: EKVX NSCLC
HOP-92 NSCLC = test system: HOP-92 NSCLC
786-0 renal = test system: 786-0 renal
K-562 leukemia = test system: K-562 leukemia
NCI/ADR-RES ovarian = test system: NCI/ADR-RES ovarian
MDA-MB-435 = test system: MDA-MB-435
OVCAR-8 ovarian = test system: OVCAR-8 ovarian
T-47D breast = test system: T-47D breast
HOP-62 NSCLC = test system: HOP-62 NSCLC
SR leukemia = test system: SR leukemia
ACHN renal = test system: ACHN renal
HCT-15 colon = test system: HCT-15 colon
COLO 205 colon = test system: COLO 205 colon
SNB-75 CNS = test system: SNB-75 CNS
DU-145 prostate = test system: DU-145 prostate
SF-539 CNS = test system: SF-539 CNS
MOLT-4 leukemia = test system: MOLT-4 leukemia
RPMI-8226 leukemia = test system: RPMI-8226 leukemia
UO-31 renal = test system: UO-31 renal
CAKI-1 renal = test system: CAKI-1 renal
SK-MEL-2 melanoma = test system: SK-MEL-2 melanoma
U251 CNS = test system: U251 CNS
HT29 colon = test system: HT29 colon
M14 melanoma = test system: M14 melanoma
SK-MEL-5 melanoma = test system: SK-MEL-5 melanoma
NCI-H23 lung = test system: NCI-H23 lung
MDA-MB-468 breast = test system: MDA-MB-468 breast
NCI-H460 lung = test system: NCI-H460 lung
BT-549 breast = test system: BT-549 breast
HCC-2998 colon = test system: HCC-2998 colon

SMILES: CC1(c2ccccc2)NC(=O)N(CC(=O)Nc2ccc(C(=O)/C=C/c3ccccc3)cc2)C1=O (centres undefined)
- TGI (EKVX NSCLC): 33 µM
- GI50 (HOP-92 NSCLC): 9.31 µM
- TGI (HOP-92 NSCLC): 69.2 µM
- GI50 (786-0 renal): 13.7 µM
- TGI (786-0 renal): 27.4 µM
- GI50 (K-562 leukemia): 4.03 µM
- TGI (K-562 leukemia): > 100 µM
- GI50 (NCI/ADR-RES ovarian): 21.8 µM
- TGI (NCI/ADR-RES ovarian): 82.3 µM
- GI50 (MDA-MB-435): 3.11 µM
- TGI (MDA-MB-435): 13.5 µM
- GI50 (OVCAR-8 ovarian): 16.8 µM
- TGI (OVCAR-8 ovarian): 64.3 µM
- GI50 (T-47D breast): 3.17 µM
- TGI (T-47D breast): 29.2 µM
- GI50 (HOP-62 NSCLC): 18.2 µM
- TGI (HOP-62 NSCLC): 53.5 µM
- GI50 (SR leukemia): 3.1 µM
- TGI (SR leukemia): > 100 µM
- GI50 (ACHN renal): 13.2 µM
- TGI (ACHN renal): 31 µM
- GI50 (HCT-15 colon): 14.2 µM
- TGI (HCT-15 colon): 35.3 µM
- GI50 (COLO 205 colon): 14.2 µM
- TGI (COLO 205 colon): 29.6 µM
- GI50 (SNB-75 CNS): 3 µM
- TGI (SNB-75 CNS): 41.7 µM
- GI50 (DU-145 prostate): 13.7 µM
- TGI (DU-145 prostate): 28.9 µM
- GI50 (SF-539 CNS): 12.9 µM
- TGI (SF-539 CNS): 25.9 µM
- GI50 (MOLT-4 leukemia): 7.1 µM
- TGI (MOLT-4 leukemia): 57.1 µM
- GI50 (RPMI-8226 leukemia): 2.27 µM
- TGI (RPMI-8226 leukemia): 6.85 µM
- GI50 (UO-31 renal): 10.3 µM
- TGI (UO-31 renal): 23.9 µM
- GI50 (CAKI-1 renal): 11.5 µM
- TGI (CAKI-1 renal): 29.6 µM
- GI50 (SK-MEL-2 melanoma): 12.8 µM
- TGI (SK-MEL-2 melanoma): 33.9 µM
- GI50 (U251 CNS): 6.17 µM
- TGI (U251 CNS): 21.3 µM
- GI50 (HT29 colon): 7.82 µM
- TGI (HT29 colon): 24.6 µM
- GI50 (M14 melanoma): 9.54 µM
- TGI (M14 melanoma): 22.7 µM
- GI50 (SK-MEL-5 melanoma): 7.59 µM
- TGI (SK-MEL-5 melanoma): 20.4 µM
- GI50 (NCI-H23 lung): 13.9 µM
- TGI (NCI-H23 lung): 28.9 µM
- GI50 (MDA-MB-468 breast): 5.7 µM
- TGI (MDA-MB-468 breast): 20.6 µM
- GI50 (NCI-H460 lung): 15.5 µM
- TGI (NCI-H460 lung): 41 µM
- GI50 (BT-549 breast): 8.21 µM
- TGI (BT-549 breast): 21.6 µM
- GI50 (HCC-2998 colon): 4.25 µM
- TGI (HCC-2998 colon): 14.3 µM

From PubChem BioAssay (NCI)
